Data from publication PMC11667226 (Theranostics, 2025).
Non-standard residues stand in square brackets, D forms with d. Residues, ends and D or L forms follow the SMILES beside them. *: point of attachment. X1 = CC1(C)C(=CC=CC=CC=CC2=[N+](CCCCCC(=O)*)c3ccc4ccccc4c3C2(C)C)N(CCCCS(=O)(=O)[O-])c2ccc3ccccc3c21; Cha = N[C@@H](CC1CCCCC1)C(=O)O

How the values were obtained:
[1] = tested on: oral and oropharyngeal squamous cell carcinoma (OSCC, OPSCC); experiment: Sensitivity of FG001 optical imaging for tumor detection, verified by histology; assay type: in vivo, human; settings: 16 patients with OSCC/OPSCC; FG001 36, 16 or 4 mg i.v. the evening prior to surgery; 11 optically guided biopsies and 5 cross-section samples
Procedure: For 11 out of 16 patients, a single biopsy was sampled from the resected tumor specimen ex-vivo on the back-table from a region with a bright fluorescence presented by the imaging system. For the remaining 5 patients, the tumors were cross-sectioned for detailed optical imaging and histopathological processing (see next section). The back-table imaging was performed with the same settings (Image profile: NIR_highcontrast or NIR_contrast, excitation laser: 805 nm) and with no other light sources, always with a perpendicular angle to the table, and a camera-to-tumor distance of 20 centimeters. The biopsies were taken with biopsy-punch-forceps, hereafter formalin (4%) fixed, paraffin-embedded (i.e. FFPE), and evaluated with histopathological assessment by a pathologist for the presence of cancer tissue - concluding on cancer-positive or negative.
For 5 out of the 16 patients, the resected tumor specimens were cut in half, sliced at the OR, and imaged with the Elevision® imaging system. The specimens underwent routine pathologic processing at the Department of Pathology. […] To evaluate the overlap between fluorescence signal from FG001, uPAR-expression, and tumor tissue, the cryosections were first fluorescently scanned with an Amersham Typhoon^TM scanner from Cytiva and, thereafter, stained using immunohistochemistry for uPAR and Cytokeratin (CK), and hematoxylin and eosin (H&E) stained. […]

[2] = tested on: neck lymph node metastasis; experiment: Optical visualization of neck lymph node metastasis; assay type: in vivo, human
Procedure: All patients were treated surgically according to the national guidelines. The primary investigator (PI) was part of the surgical team in all procedures. A surgical robot system (DaVinci Si, Intuitive) was used for TORS in the two patients with OPSCC. The surgeons were not allowed to resect tissue based on intraoperative detected fluorescence signal but complied with standard of care. Depending on the clinical TNM staging (based on clinical examination, ultrasonography examination of the neck, and MRI or CT scans), either sentinel lymph node biopsy (using 99^mTc-nanocoll) or neck dissection was performed for neck management. Post-surgical (chemo)radiation was prescribed according to national guidelines at a multidisciplinary conference. The pre-, intraoperative, and ex-vivo optical images were obtained using the open-field imaging system Elevision® model VS3 Iridium-Visionsense Infrared (IR) Fluorescence, Vision System (Medtronics, USA). Image profile: NIR_highcontrast or NIR_contrast, excitation laser: 805 nm. The Elevision IR system generates real-time optical imaging merged with the color video recording on a viewer screen. The intensity-dependent multi-color NIR overlay was presented in parallel with white-light and NIR grayscale images. The camera head was mounted on a maneuverable arm over the surgical field with sterile draping. The preferred camera-to-tumor distance was 20-40 centimeters, but the system also allows positioning at closer or longer distances to areas of interest. For optimal imaging, all other light sources in the OR were switched off and window blinds were closed. The imaging system itself provides powerful white light illumination of the surgical field when imaging is performed.
The exploratory endpoints were defined as: 1) Morphological co-localization between optical signal, tumor tissue, and target (i.e. uPAR) expression, 2) Optical visualization of local neck lymph node metastasis, and 3) Longitudinal investigation of the optimal signal intensity for intraoperative imaging.

## CC(C)C[C@H](NC(=O)[C@H](Cc1ccc(O)cc1)NC(=O)[C@@H](CCCNC(=N)N)NC(=O)[C@@H](CO)NC(=O)[C@H](Cc1ccccc1)NC(=O)[C@H](CC1CCCCC1)NC(=O)[C@H](CC(=O)O)NC(=O)[C@H](CCC(=O)O)NC(=O)[C@H](CCC(=O)O)NC(=O)CCCCC[N+]1=C(C=CC=CC=CC=C2N(CCCCS(=O)(=O)[O-])c3ccc4ccccc4c3C2(C)C)C(C)(C)c2c1ccc1ccccc21)C(=O)N[C@@H](Cc1c[nH]c2ccccc12)C(=O)N[C@@H](CO)C(=O)O [FG001, ICG-Glu-Glu-AE105] (X1-EED[Cha]F[dS][dR]YLWS-OH; N-terminus and C-terminus assumed)
[1]
  Sensitivity for tumor detection verified by histology: 100%
[2]; during neck dissection, confirmed on back table and by pathology
  Intraoperative visualization of clinical neck metastasis: clearly visualized
[2]; no systematic imaging of lymph nodes without clinical evidence of metastasis
  Uptake in adjacent unaffected lymph nodes: No uptake
[2]; two cases with SNB staging, nodes all negative for metastatic deposits on final pathology
  Optical signal of harvested sentinel nodes: absent or weak optical signal
